# Entries after “also recorded” stand apart in the source; their conditions may differ. Read-outs that look alike come from different tables or passages of the source.
# What was measured:
# [1] = DPPH radical scavenging assay; type: biochemical
# Procedure, shortened: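 Compounds at 0.06, 0.12, 0.18, 0.23, 0.25 and 0.28 mM reacted with the stable DPPH• radical. Absorbance at 517 nm was read 5 and 10 min after mixing to follow DPPH reduction, with L-ascorbic acid as the reference.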
# [2] = system: A549 (lung adenocarcinoma); assay: MTT proliferation assay, A549; type: cell-based; details: Homo sapiens, 72 h
# Procedure, shortened: (§1)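 Cells in DMEM with 10% FBS were seeded at 5000 per well, treated 24 h later with compound from 0.01 μM to 100 μM, and incubated 72 h at 37 °C, 5% CO2. MTT was added for 3 h, formazan dissolved in DMSO, and absorbance read at 570 nm; IC50 came from regression of growth curves.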
# [3] = system: MCF-7 (breast adenocarcinoma); assay: MTT proliferation assay, MCF-7; type: cell-based, Human; details: for IC50: Homo sapiens, MCF7, 72 h, MTT
# Procedure, shortened: as §1
# [4] = system: SW620 (colorectal adenocarcinoma, metastatic); assay: MTT proliferation assay, SW620; type: cell-based; details: Homo sapiens, SW-620, 72 h
# Procedure, shortened: as §1
# [5] = system: HepG2 (hepatocellular carcinoma); assay: MTT proliferation assay, HepG2; type: cell-based; details: Homo sapiens, 72 h
# Procedure, shortened: as §1
# [6] = system: CFPAC-1 (ductal pancreatic adenocarcinoma); assay: MTT proliferation assay, CFPAC-1; type: cell-based; details: Homo sapiens, 72 h
# Procedure, shortened: as §1
# [7] = system: HFF-1 cells; assay: Seahorse XF Cell Mito Stress Test, HFF-1; type: cell-based, Human; details: HFF-1, 24 h
# Description: The Seahorse XF Cell Mito Stress Test was used for measurements of mitochondrial respiration by direct assessment of the oxygen consumption rate (OCR), of treated and untreated cells on the Seahorse XFe24 Analyzer, (Agilent, Santa Clara, CA, USA). Key parameters of the mitochondrial function were measured by direct assessment of the OCR, by use of the Mito Stress Test (Agilent, Agilent, Santa Clara, CA, USA). The Mito Stress Test uses modulators of respiration that target components of the electron transport chain in the mitochondria. The compounds added to the reaction were: oligomycin, mitochondrial oxidative phosphorylation uncoupler carbonyl cyanide-4-(trifluoromethoxy)phenylhydrazone (FCCP), and the mix of rotenone and antymicin A. These were directly injected to the cell growth medium containing cells treated with selected L-ASA derivatives to determine the production of ATP, respiration at maximal level, and the non-mitochondrial respiration. Measured parameters were used for calculation of the proton leakage, spare respiratory capacity, and basal respiration. The assay was performed according to the manufacturer’s instructions (SeaHorse—Mito Stress Test: Agilent, Santa Clara, CA, USA). Briefly, selected compound 4e was tested due to its selective antiproliferative effect on MCF-7 cells. MCF-7 cells were treated for 24 h with compound 4e at 3 different concentrations (at 12.72 µM, 25.44 µM and 50.88 µM) while the cells HFF-1 were treated for 24 h with compound 4e at concentrations 50 µM, 100 µM, and 200 µM. […] The experiment was performed with biological duplicates.
# [8] = 5 min treatment, read-out: IC50 of DPPH• inhibition, Treatm. 5 min
# [9] = 10 min treatment, read-out: IC50 of DPPH• inhibition, Treatm. 10 min
"IC50 [1, 8] [µM]","IC50 [1, 9] [µM]",pIC50 (negative logarithm of DPPH• IC50) ([1]; calculated from IC50 values of Table 1),IC50 [2] [µM],IC50 [3] [µM],IC50 [4] [µM],IC50 [5] [µM],IC50 [6] [µM],"decrease of basal cell respiration and ATP production, switch towards non-mitochondrial respiration ([7]; higher concentrations)",cellular metabolism and mitochondrial activity ([7]; 100 µM),Compound,"selectivity index, SI ([3]; WI-38 versus MCF-7)",basal cell respiration and ATP production [7]
180 ± 60,170 ± 50,3.75,> 100,> 100,> 100,> 100,> 100,this effect was not observed,,"O=C1O[C@H]([C@@H](O)CO)C(O)=C1O [L-ASA, L-ascorbic acid]",,
200 ± 10,190 ± 10,,25.4,6.72,> 100,> 100,> 100,,slightly positive effect,"O=C1O[C@H]([C@@H](O)Cn2cc(-c3ccc(Br)cc3)nn2)C(O)=C1O [Compound 4e, 6-[4-(4-bromophenyl)-1,2,3-triazol-1-yl]-6-deoxy-L-ascorbic acid]",11,did not affect the basal cell respiration or ATP production; also recorded: did not affect the basal cell respiration and ATP production

# From article PMC6801448, “The Antioxidant and Antiproliferative Activities of 1,2,3-Triazolyl-L-Ascorbic Acid Derivatives” (International Journal of Molecular Sciences, 2019)
